Where “and” joins values, the source holds several entries; their conditions need not be identical. Identical values can stand only once. Entries after “also recorded” stand apart in the source; their conditions may differ.
What was measured:
[1] = Phase 2 study in pediatric patients (Example 6), plasma concentrations of RVT-501 and M11 at Week 1; type: in vivo, human; conditions: for Plasma concentration, Mean (SD) / Plasma concentration, Median / Plasma concentration, Min / Plasma concentration, max / N with concentrations above LLQ (plasma): Week 1 pre-dose, subjects aged 2 to 11 years, twice daily application of RVT-501 0.5%; for N with concentrations above LLQ (plasma): N 16, LLQ 0.25 ng/mL
Method: Pharmacokinetic Endpoint: PK analysis for RVT-501 and M11 metabolite at the Week 1 visit in subjects 2 to 11 years old.
Pharmacokinetic Analyses: RVT-501 and M11 were measured in plasma by a validated assay. Plasma concentrations were summarized as continuous variables.
Pharmacokinetic Concentration Results: A single blood sample was collected pre-dose in subjects aged 2 to 11 years old at Week 1 to assess the concentration of RVT-501 and the M11 metabolite in plasma.

[2] = Open-label Phase 1b study in pediatric patients (Example 7), plasma concentrations of RVT-501 and M11; type: in vivo, human; conditions: for subjects with measurable concentrations in plasma at one or more time points: PK Set n=25, LLOQ 0.25 ng/mL
Excerpt: During the Treatment Phase, subjects, their parent(s), or caregiver applied RVT-501 0.5% ointment to affected areas twice daily for 28 days. Subjects returned to the clinic at Week 1, Week 4, and follow-up for study assessments. On Day 1 and Weeks 2 and 3, subjects were contacted by phone to confirm their status, including any adverse events (AEs) and changes in concomitant medications.
Primary Endpoints: Frequency and severity of AE (local and systemic), Laboratory values, Vital signs, Plasma concentrations of RVT-501 and M11 metabolite.
Analysis Populations: All subjects enrolled in the study who had at least one application of study drug were included in the Safety Set. This was the population for the safety and efficacy analyses. The PK Set included all subjects who underwent plasma PK sampling and had evaluable PK assay results.
Pharmacokinetic Analyses: RVT-501 and M11 were measured in plasma by a validated assay. The number and percent of subjects with measurable concentration at each time point and at any time during the study were summarized. RVT-501 and M11 concentrations were summarized descriptively at each collection time point.

[3] = Blood-to-plasma partition (B/P); type: in vitro ADME, human; conditions: for average B/P of two levels: 3 and 160 ng/mL; for blood plasma ratio at 3 ng/mL / blood plasma ratio at 160 ng/mL: human, whole blood and plasma prepared from it
Method: Blood-to-plasma partition and shelf-life of refrigerated blood: The blood-to-plasma partition (B/P) of E6005 and M11 was determined by assaying concentrations of E6005 and M11 in whole blood samples and plasma samples prepared from blood samples by centrifugation. […] The average B/P of two levels was 0.679 for E6005 and 0.584 for M11.

[4] = Clinical application of DBS assay: blood levels in pediatric trial of E6005 ointment; type: in vivo, human; conditions: pediatric subjects; E6005 ointment 0.05% or 0.2% twice a day for two weeks; 147 DBS samples
Method: Clinical application: A clinical study was performed in which E6005 ointment containing 0.05% or 0.2% was topically applied twice a day for two weeks to pediatric subjects. Blood samples were obtained at 1- and 2-week post-dose as well as subsequent 7-day follow-up period in collection tubes with K2-EDTA as an anticoagulant, thereafter put on ice as soon as possible to reduce possible conversion of E6005 to M11. Details on sample handling at the clinics were clarified in a lab manual; a 25 μL aliquot blood sample was spotted onto the center of circle of DBS cards (four replicates per sample) at clinics, then dried at room temperature for at least 2 h. DBS cards with desiccants were placed in zip lock bags and stored frozen below −20° C. until shipment to a bioanalytical laboratory. Samples were stored below −15° C. at the laboratory until they were subjected to sample processing for the determination of E6005 and M11 concentrations in DBS.

[5] = Week 1 Hour 3, RVT-501 0.5% (N = 25)
[6] = Week 1 Hour 7, RVT-501 0.5% (N = 25)
[7] = Week 1 Pre-Dose, RVT-501 0.5% (N = 25)
[8] = Week 4 Pre-Dose, RVT-501 0.5%, N 23
[9] = Week 1, RVT-501 0.5% twice daily, person two

CNc1nc(-c2cccc(NC(=O)c3ccc(C(=O)O)cc3)c2)c2cc(OC)c(OC)cc2n1 [Formulation M11, 4-((3-(6,7-dimethoxy-2-(methylamino)quinazolin-4-yl)phenyl)carbamoyl)benzoic acid]
highest plasma M11 concentration (Subject 05002) ([1]; Week 1, RVT-501 0.5% twice daily): 16.90 ng/mL
measurable plasma concentrations of the M11 metabolite (eight subjects out of 16) ([1]; Week 1, ages 2-11 years): near the lower limit of quantitation
Plasma concentration, Mean (SD) [1]: 1.50 (4.194) ng/mL
Plasma concentration, Median [1]: 0.19 ng/mL
Plasma concentration, Min [1]: 0 ng/mL
Plasma concentration, max [1]: 16.90 ng/mL
N with concentrations above LLQ (plasma) [1]: 8
subjects with measurable concentrations in plasma at one or more time points [2]: 40%
highest plasma concentration of M11 (Subject 03007) ([2]; Week 1, 7 hours post-dose): 23.4 ng/mL and 23.40 ng/mL
mean plasma concentration of the M11 metabolite ([2]; Week 1, 7 hours post-dose): 1.24 ng/mL
Number of subjects with measurable concentrations, (%) [2, 5]: (28.0) %
Plasma concentration, Max [2, 5]: 8.58 ng/mL
Plasma concentration, Mean [2, 5]: 0.61 ng/mL
Plasma concentration, Median [2, 5]: 0.0 ng/mL
Plasma concentration, Min [2, 5]: 0 ng/mL
Number of subjects with measurable concentrations, (%) [2, 6]: (28.0) %
Plasma concentration, Max [2, 6]: 23.40 ng/mL
Plasma concentration, Mean [2, 6]: 1.24 ng/mL
Plasma concentration, Median [2, 6]: 0.0 ng/mL
Plasma concentration, Min [2, 6]: 0 ng/mL
Number of subjects with measurable concentrations, (%) [2, 7]: (24.0) %
Plasma concentration, Max [2, 7]: 7.64 ng/mL
Plasma concentration, Mean [2, 7]: 0.57 ng/mL
Plasma concentration, Median [2, 7]: 0.0 ng/mL
Plasma concentration, Min [2, 7]: 0 ng/mL
Number of subjects with measurable concentrations, (%) [2, 8]: (17.4) %
Plasma concentration, Max [2, 8]: 1.07 ng/mL
Plasma concentration, Mean [2, 8]: 0.12 ng/mL
Plasma concentration, Median [2, 8]: 0.0 ng/mL
Plasma concentration, Min [2, 8]: 0 ng/mL
mean plasma concentration of the M11 metabolite ([2]; all time points except 7 hours post-dose at Week 1): below 1 ng/ml
average B/P of two levels [3]: 0.584
blood plasma ratio at 3 ng/mL [3]: 0.594
blood plasma ratio at 160 ng/mL [3]: 0.574
maximum level in blood (DBS) [4]: below the LLOQ

CNc1nc(-c2cccc(NC(=O)c3ccc(C(=O)OC)cc3)c2)c2cc(OC)c(OC)cc2n1 [RVT-501, methyl N-[3-(6,7-dimethoxy-2-methylaminoquinazolin-4-yl)phenyl]terephthalamic acid]
plasma RVT-501 concentration, Subject 03001 ([1]; Week 1, RVT-501 0.5% twice daily, person one): 1.07 ng/mL
plasma RVT-501 concentration, Subject 05002 [1, 9]: 306 ng/mL and 306.00 ng/mL
plasma RVT-501 concentration, Subject 21001 [1, 9]: above the upper limit of quantification; also recorded: above upper limit of quantitation
Plasma concentration, Mean (SD) [1]: 31.69 (88.531) ng/mL
Plasma concentration, Median [1]: 0 ng/mL
Plasma concentration, Min [1]: 0 ng/mL
Plasma concentration, max [1]: 306.00 ng/mL
N with concentrations above LLQ (plasma) [1]: 3
subjects with measurable concentrations in plasma at one or more time points [2]: 40%
mean plasma concentration of RVT-501 ([2]; Week 1, 3 hours post-dose): 102.92 ng/mL
plasma level of RVT-501, Subject 03002 ([2]; Week 1, 3 hours post-dose): 710.0 ng/mL
mean plasma concentration of RVT-501 ([2]; Week 1, 7 hours post-dose): 62.16 ng/mL
plasma level of RVT-501, Subject 03001 ([2]; Week 1, 7 hours post-dose): 80.3 ng/mL
Number of subjects with measurable concentrations, (%) [2, 5]: (24.0) %
Plasma concentration, Max [2, 5]: 1860.00 ng/mL
Plasma concentration, Mean [2, 5]: 102.92 ng/mL
Plasma concentration, Median [2, 5]: 0.0 ng/mL
Plasma concentration, Min [2, 5]: 0 ng/mL
Number of subjects with measurable concentrations, (%) [2, 6]: (32.0) %
Plasma concentration, Max [2, 6]: 1470.00 ng/mL
Plasma concentration, Mean [2, 6]: 62.16 ng/mL
Plasma concentration, Median [2, 6]: 0.0 ng/mL
Plasma concentration, Min [2, 6]: 0 ng/mL
Number of subjects with measurable concentrations, (%) [2, 7]: (24.0) %
Plasma concentration, Max [2, 7]: 147.00 ng/mL
Plasma concentration, Mean [2, 7]: 6.00 ng/mL
Plasma concentration, Median [2, 7]: 0.0 ng/mL
Plasma concentration, Min [2, 7]: 0 ng/mL
mean plasma concentration of RVT-501 ([2]; Week 1 pre-dose): 6.00 ng/mL
plasma level of RVT-501, Subject 03007 ([2]; Week 1 pre-dose): 147.0 ng/mL
subjects with concentrations of RVT-501 ≥80 ng/ml ([2]; Week 1 visit): 16%
Number of subjects with measurable concentrations, (%) [2, 8]: (13.0) %
Plasma concentration, Max [2, 8]: 0.45 ng/mL
Plasma concentration, Mean [2, 8]: 0.05 ng/mL
Plasma concentration, Median [2, 8]: 0.0 ng/mL
Plasma concentration, Min [2, 8]: 0 ng/mL
highest plasma concentration of RVT-501 ([2]; human, in vivo): 1 860 ng/mL
average B/P of two levels [3]: 0.679
blood plasma ratio at 3 ng/mL [3]: 0.69
blood plasma ratio at 160 ng/mL [3]: 0.669
maximum level in blood (DBS) [4]: 1.65 ng/mL

Reference: patent US20210093637A1, “TOPICAL OINTMENT FORMULATIONS OF PDE-4 INHIBITOR AND THEIR USE IN TREATING SKIN CONDITIONS” (Dermavant Sciences GmbH, priority 2017, published 2021)
